biological target: T1, interaction between BRD2 and E3 ligase DCAF16 (Homo sapiens, UniProt P25440); experiment: Verification of BET-DCAF16 interaction, NanoBRET in HEK293 cells (Test Example 7); type: cell-based; settings: test compound 10 μmol/L, 2 hours; HEK293 cells expressing Nluc-BRD2 and DCAF16-HaloTag; bortezomib; average of n=3
T1 construct: expressed in transfected cells; host or cells: HEK293
Procedure: HEK293 cells (ATCC® CRL-1573™) were cultured using a carbon dioxide gas incubator (95% air, 5% CO2) at 37° C. in DMEM, High Glucose, Pyruvate (DMEM: Code No. 11995073, Thermo Fisher Scientific) in which inactivated fetal bovine serum (FBS: Code No. 10099-148 (Thermo Fisher Scientific) was added in an amount to give a final concentration of 10 vol %. A Falcon® 100 mm×20 mm cell culture dish (Code No. 353003, CORNING) was used for cell culture.
A sequence encoding BRD2 was cleaved from pFN21AB3863 (Code No. FHC01342, Kazusa Genome Technologies) using Flexi Enzyme Blend (SgfI and PmeI) (Code No. R1852, Promega) and recombined with pFN31A Nluc CMV-Hygro Flexi® Vector (Code No. N131A, Promega) similarly cleaved using Flexi Enzyme Blend (SgfI and PmeI) to prepare a plasmid pFN31A_BRD2 expressing BRD2 with an Nluc tag added to the N-terminal. A sequence encoding DCAF16 having sgfI and pmeI restriction enzyme sites at both ends was amplified and purified by polymerase chain reaction using two primers, […] (SEQ ID NO: 4) and […] (SEQ ID NO: 5) from cDNA derived from HEK293 cells. Cleavage was performed using Flexi Enzyme Blend (SgfI and PmeI), and pFC27K HaloTag® CMV-neo Flexi® Vector (Code No. G8431, Promega) cleaved using Carboxy Flexi Enzyme Blend (Sgf I and EcoICR I) (Code No. R1901, Promega) was recombined to prepare a plasmid pFC27K_DCAF16 expressing DCAF16 with HaloTag added to the C-terminal. Sequencing was performed and confirmed that the sequence encoding DCAF16 matched NM_001345880.
Cultured HEK293 cells were washed with DPBS, no calcium, no magnesium (DPBS: Code No. 14190144, Thermo Fisher Scientific) and harvested using TrypLE™ Express Enzyme (1×), phenol red (TrypLE: Code No. 12605036, Thermo Fisher Scientific), and prepared to be 4.0×10^5 cells/mL in DMEM. A volume of 12 mL of the cell suspension was seeded in a Falcon® 100 mm×20 mm cell culture dish and cultured in a carbon dioxide gas incubator at 37° C. for 6 hours. For one dish, 12 μg of pFC27K_DCAF16, 0.12 μg of p FN31A_BRD2, 48 μL of FuGENE® HD Transfection Reagent (Code No. E2312, Promega) were added to 600 μL of Opti-MEM™ I Reduced Serum Medium, no phenol red (Opti-MEM: Code No. 11058021, Thermo Fisher Scientific) and mixed. The mixture was allowed to stand for 15 minutes and added to HEK293 cells. After 20 hours, the cells were washed with DPBS, no calcium, no magnesium, harvested from the dish using TrypLE, and then neutralized in DMEM. After centrifugation, the supernatant was discarded, and the cells were prepared to be 2.2×10^5 cells/mL using Opti-MEM containing 4% FBS. HaloTag® NanoBRET™ 618 Ligand contained in NanoBRET™ Nano-Glo® Detection System (Code No. N1662, Promega) and bortezomib as a proteasome inhibitor were added to be a 1000-fold dilution. In addition, a group was prepared to which DMSO was added instead of HaloTag® NanoBRET™ 618 Ligand. 90 μL of the cell suspension was seeded in CulturPlate-96 (Code No. 6005688, PerkinElmer), and allowed to stand in a carbon dioxide gas incubator at 37° C. for 30 minutes. A volume of 10 mmol/L of a solution of the test compound in DMSO was adjusted to be 100 μmol/L with Opti-MEM, 10 μL of the solution was added to each well, and then the mixture was allowed to stand in a carbon dioxide gas incubator at 37° C. for 2 hours. At this time, all the groups were prepared so that the final concentration of DMSO was 0.1 vol % including the group to which the test compound was not added. NanoBRET™ Nano-Glo® Substrate included in the NanoBRET™ Nano-Glo® Detection System was diluted 100-fold with Opti-MEM. After adding 25 μL of the dilution each and stirring for 30 seconds, measurement was performed with an Emission Filter of 460 nm and 620 nm using EnVision (PerkinElmer). The BRET ratio of 10 μmol/L for each test compound was calculated using the following formula. The experiment was performed by n=3 and the average value was calculated. […]

T1 sequence (P25440 whole entry): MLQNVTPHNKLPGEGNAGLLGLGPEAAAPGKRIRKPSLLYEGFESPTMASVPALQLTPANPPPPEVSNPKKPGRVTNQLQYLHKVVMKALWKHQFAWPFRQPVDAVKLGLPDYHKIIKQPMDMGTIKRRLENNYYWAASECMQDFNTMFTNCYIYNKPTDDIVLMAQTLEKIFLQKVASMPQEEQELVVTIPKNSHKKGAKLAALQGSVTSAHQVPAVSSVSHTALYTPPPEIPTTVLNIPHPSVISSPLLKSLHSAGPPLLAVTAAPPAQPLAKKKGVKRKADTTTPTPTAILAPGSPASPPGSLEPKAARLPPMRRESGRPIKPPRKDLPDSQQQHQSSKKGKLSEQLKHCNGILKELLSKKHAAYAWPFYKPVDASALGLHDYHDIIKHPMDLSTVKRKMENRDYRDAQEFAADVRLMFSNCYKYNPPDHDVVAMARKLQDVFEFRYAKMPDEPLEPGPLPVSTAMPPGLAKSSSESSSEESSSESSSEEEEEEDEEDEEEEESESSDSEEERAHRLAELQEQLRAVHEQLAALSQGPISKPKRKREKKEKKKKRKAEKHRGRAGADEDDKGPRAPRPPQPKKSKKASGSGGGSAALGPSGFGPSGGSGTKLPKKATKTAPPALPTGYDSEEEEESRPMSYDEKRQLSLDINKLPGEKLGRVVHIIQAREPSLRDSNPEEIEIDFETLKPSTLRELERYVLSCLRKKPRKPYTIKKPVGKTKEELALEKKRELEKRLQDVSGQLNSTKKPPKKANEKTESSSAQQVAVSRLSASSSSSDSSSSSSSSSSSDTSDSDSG
T1 sequence (Q9NXF7 whole entry partner): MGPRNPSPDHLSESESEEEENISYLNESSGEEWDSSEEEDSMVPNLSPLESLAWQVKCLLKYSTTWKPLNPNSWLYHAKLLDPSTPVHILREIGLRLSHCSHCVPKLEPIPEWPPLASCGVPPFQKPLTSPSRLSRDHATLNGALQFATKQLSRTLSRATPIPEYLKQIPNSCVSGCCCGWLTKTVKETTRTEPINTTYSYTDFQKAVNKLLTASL

First: CCC(=O)N1c2ccccc2[C@H](Nc2ccc(C(=O)NCCCNC(=O)c3ccc(C4=N[C@@H](CC(=O)OC(C)(C)C)c5nnc(C)n5-c5sc(C)c(C)c54)cc3)cc2)C[C@@H]1C [Compound 1h, tert-Butyl 2-[(S)-2,3,9-trimethyl-4-(4-{[3-(4-{[(2S,4R)-2-methyl-1-propionyl-1,2,3,4-tetrahydroquinolin-4-yl]amino}benzamide)propyl]carbamoyl}phenyl)-6H-thieno[3,2-f][1,2,4]triazolo[4,3-a][1,4]diazepin-6-yl]acetate]
Second: CCC(=O)N1c2ccccc2[C@H](Nc2ccc(C(=O)NCC(=O)CNC(=O)c3ccc(N[C@@H]4C[C@H](C)N(C(=O)CC)c5ccccc54)cc3)cc2)C[C@@H]1C [Compound 1l, N,N′-(2-Oxopropane-1,3-diyl)bis(4-{[(2S,4R)-2-methyl-1-propionyl-1,2,3,4-tetrahydroquinolin-4-yl]amino}benzamide)]
The “BRET Ratio” value of the first is lower: 6.84 for the first, 8.03 for the second.

Compared with `CCC(=O)N1c2ccccc2[C@H](Nc2ccc(C(=O)NCc3cn(-c4ccc(N[C@@H]5C[C@H](C)N(C(=O)CC)c6ccccc65)cc4)nn3)cc2)C[C@@H]1C` [Compound 3a, 4-{[(2S,4R)-2-Methyl-1-propionyl-1,2,3,4-tetrahydroquinolin-4-yl]amino}-N-{[1-(4-{[(2S,4R)-2-methyl-1-propionyl-1,2,3,4-tetrahydroquinolin-4-yl]amino}phenyl)-1H-1,2,3-triazol-4-yl]methyl}benzamide], `CCC(=O)N1c2ccccc2[C@H](Nc2ccc(C(=O)N3CCn4c(-c5ccc(N[C@@H]6C[C@H](C)N(C(=O)CC)c7ccccc76)cc5)cnc4C3)cc2)C[C@@H]1C` [Compound 3e, 1-[(2S,4R)-2-Methyl-4-({4-[3-(4-{[(2S,4R)-2-methyl-1-propionyl-1,2,3,4-tetrahydroquinolin-4-yl]amino}phenyl)-5,6,7,8-tetrahydroimidazo[1,2-a]pyrazine-7-carbonyl]phenyl}amino)-3,4-dihydroquinolin-1(2H)-yl]propan-1-one] is lower in “BRET Ratio” value: 8.51 for the first, 5.96 for the second.

Compared with `Cc1sc2c(c1C)C(c1ccc(C(=O)NCc3cn(-c4ccc(C5=N[C@@H](CC(=O)OC(C)(C)C)c6nnc(C)n6-c6sc(C)c(C)c65)cc4)nn3)cc1)=N[C@@H](CC(=O)OC(C)(C)C)c1nnc(C)n1-2` [Compound 3b, tert-Butyl 2-[(S)-4-(4-{4-[(4-{(S)-6-[2-(tert-butoxy)-2-oxoethyl]-2,3,9-trimethyl-6H-thieno[3,2-f][1,2,4]triazolo[4,3-a][1,4]diazepin-4-yl}benzamide)methyl]-1H-1,2,3-triazol-1-yl}phenyl)-2,3,9-trimethyl-6H-thieno[3,2-f][1,2,4]triazolo[4,3-a][1,4]diazepin-6-yl]acetate], `CCC(=O)N1c2ccccc2[C@H](Nc2ccc(-n3cc(CNC(=O)c4ccc(Cn5c(CC)cc6c5CCCC6=O)cc4)nn3)cc2)C[C@@H]1C` [Compound 15f, 4-((2-Ethyl-4-oxo-4,5,6,7-tetrahydro-1H-indol-1-yl)methyl)-N-((1-(4-(((2S,4R)-2-methyl-1-propionyl-1,2,3,4-tetrahydroquinolin-4-yl)amino)phenyl)-1H-1,2,3-triazol-4-yl)methyl)benzamide] is lower in “BRET Ratio” value: 6.06 for the first, 5.99 for the second.

Compared with `CCC(=O)N1c2ccccc2[C@H](Nc2ccc(NC(=O)CCCC(=O)Nc3ccc(N[C@@H]4C[C@H](C)N(C(=O)CC)c5ccccc54)cc3)cc2)C[C@@H]1C` [Compound 6k, N^1,N^5-Bis(4-(((2S,4R)-2-methyl-1-propionyl-1,2,3,4-tetrahydroquinolin-4-yl)amino)phenyl)glutaramide], `CCC(=O)N1c2ccccc2[C@H](Nc2ccc(NC(=O)CCCC(=O)NC3CCC(N[C@@H]4C[C@H](C)N(C(=O)CC)c5ccccc54)CC3)cc2)C[C@@H]1C` (stereo partly drawn) [Compound 7o, N^1-((1R,4r)-4-(((2S,4R)-2-Methyl-1-propionyl-1,2,3,4-tetrahydroquinolin-4-yl)amino)cyclohexyl)-N^5-(4-(((2S,4R)-2-methyl-1-propionyl-1,2,3,4-tetrahydroquinolin-4-yl)amino)phenyl)glutaramide] is lower in “BRET Ratio” value: 7.07 for the first, 6.69 for the second.

Going from `CCC(=O)N1c2ccccc2[C@H](Nc2ccc(NC(=O)N3CCN(C(=O)C4CCC(N[C@@H]5C[C@H](C)N(C(=O)CC)c6ccccc65)CC4)CC3)cc2)C[C@@H]1C` (stereo partly drawn) [Compound 7p, 4-((1R,4r)-4-(((2S,4R)-2-Methyl-1-propionyl-1,2,3,4-tetrahydroquinolin-4-yl)amino)cyclohexane-1-carbonyl)-N-(4-(((2S,4R)-2-methyl-1-propionyl-1,2,3,4-tetrahydroquinolin-4-yl)amino)phenyl)piperazine-1-carboxamide] to `CCC(=O)N1c2ccccc2[C@H](Nc2ccc(NC(=O)CNC(=O)N[C@H]3CC[C@H](N[C@@H]4C[C@H](C)N(C(=O)CC)c5ccccc54)CC3)cc2)C[C@@H]1C` [Compound 8j, 2-(3-((1R,4R)-4-(((2S,4R)-2-Methyl-1-propionyl-1,2,3,4-tetrahydroquinolin-4-yl)amino)cyclohexyl)ureido)-N-(4-(((2S,4R)-2-methyl-1-propionyl-1,2,3,4-tetrahydroquinolin-4-yl)amino)phenyl)acetamide], the “BRET Ratio” value rises from 6.8 to 7.07.

Compared with `CCC(=O)N1c2ccccc2[C@H](Nc2ccc(-n3cc(CCNC(=O)[C@H]4CC[C@H](N[C@@H]5C[C@H](C)N(C(=O)CC)c6ccccc65)CC4)nn3)cc2)C[C@@H]1C` [Compound 8a, (1R,4r)-4-(((2S,4R)-2-Methyl-1-propionyl-1,2,3,4-tetrahydroquinolin-4-yl)amino)-N-(2-(1-(4-(((2S,4R)-2-methyl-1-propionyl-1,2,3,4-tetrahydroquinolin-4-yl)amino)phenyl)-1H-1,2,3-triazol-4-yl)ethyl)cyclohexane-1-carboxamide], `CCC(=O)N1c2ccccc2[C@H](Nc2ccc(NC(=O)CCCC(=O)NC3CCN(Cc4cc(O)cc(-c5c(C)noc5C)c4)CC3)cc2)C[C@@H]1C` [Compound 12c, N^1-(1-(3-(3,5-Dimethylisoxazol-4-yl)-5-hydroxybenzyl)piperidin-4-yl)-N^5-(4-(((2S,4R)-2-methyl-1-propionyl-1,2,3,4-tetrahydroquinolin-4-yl)amino)phenyl)glutaramide] is higher in “BRET Ratio” value: 7.27 for the first, 7.6 for the second.

With `CCC(=O)N1c2ccccc2[C@H](Nc2ccc(NC(=O)CCCC(=O)Nc3ccc(Cn4c(C(=O)OCCN(C)C)cc5c4CCCC5=O)cc3)cc2)C[C@@H]1C` [Compound 15a, 2-(Dimethylamino)ethyl 1-(4-(5-((4-(((2S,4R)-2-methyl-1-propionyl-1,2,3,4-tetrahydroquinolin-4-yl)amino)phenyl)amino)-5-oxopentanamide)benzyl)-4-oxo-4,5,6,7-tetrahydro-1H-indole-2-carboxylate] the “BRET Ratio” value was 5.88.

— patent US20220378923A1, “BET DEGRADER” (KYOWA KIRIN CO., LTD., priority 2019, published 2022)
